Source: ChEMBL document CHEMBL1150821, “A new metabolite from the marine bacterium Vibrio angustum S14” (2001)
Calls of active or inactive are those of the source. The calls are words filed in the database; no cut-off is given here.

Columns and labels:
Vibrio harveyi = test: Induction of bioluminescence in Vibrio harveyi UNSW at 10 uM relative to control; type: functional
[1] = tested on: Agrobacterium tumefaciens; test: Induction of acylated homoserine lactone system-mediated traI-lacZ reporter gene expression in Agrobacterium tumefaciens A136 at 2.5 ug; type: functional, organism-based

| Compound | fold change (FC) (Vibrio harveyi) | Activity [1] |
| --- | --- | --- |
| CC(O)CC(=O)N[C@H]1CCOC1=O (some centres undefined) | 128 |  |
| CCCCOC(OCC(C)C)C(C)(C)O (centres undefined) | 32 | Active |
| CCCC(=O)CC(=O)N[C@H]1CCOC1=O |  | Active |
